Laboratory results from US12653775B2, “Canine topical formulations and methods thereof” (priority 2023, dated 2026).

Experiments:
[1] = test system: P. aeruginosa PAE 1103 (multi-drug resistant clinical isolate) biofilm; assay type: cell-based, Pseudomonas aeruginosa; details: MDR P. aeruginosa; TP1 undiluted, micronized silver at lowest concentration 0.05% v/v
Protocol: (§1) Minimum biofilm eradication concentration (MBEC) values provide estimates on the concentration of an antimicrobial product required to kill bacterial biofilm.
(§2) The CBD plate was incubated with
(§3) All test articles were tested in triplicate.

[2] = test system: Methicillin-resistant Staphylococcus pseudintermedius (MRSP) clinical isolate biofilm; test: Minimum biofilm eradication concentration (MBEC) assay, Calgary Biofilm Device; assay type: cell-based
Protocol: as §1, §2, §3

[3] = test system: biofilms of S. pseudintermedius; test: In vitro biofilm eradication study; assay type: cell-based
[4] = test system: biofilms of Pseudomonas aeruginosa; test: In vitro biofilm eradication study; assay type: cell-based

Row | Substance | biofilm eradication (in words) [1] | biofilm eradication (in words) ([2]; MRSP, TP1 undiluted, micronized silver at lowest concentration 0.05% v/v) | biofilm eradication (in words) [3] | biofilm eradication (in words) [4] | MBEC ([2]; MRSP clinical isolate biofilm, treated 24 hours at 35° C.)
1 | Silver ions | effective in eradicating the biofilms | effective in eradicating the biofilms | effective in eradicating the biofilms | effective in eradicating the biofilms | 
2 | Gentamicin [reference compound] |  |  |  |  | 0.25 µg/mL
